Measurements taken from patent US11723888B2, “Polymer conjugated thyrointegrin antagonists” (NanoPharmaceuticals, LLC, priority 2021, dated 2023).

Target: purified αvβ3 (Homo sapiens, UniProt P05106+P06756)
Assay: Binding affinity to purified αvβ3 (fibrinogen-coated plate, IC50)
Details: purified αvβ3, fibrinogen-coated plates, 2 hours room temperature
Description: The binding affinity of exemplary compounds is show in FIG. 11A, including P-bi-TET and m-P-mono-TET (both having n=36). The method was as follows: The binding affinity of P-bi-TET and m-P-mono-TET to purified αvβ3 was measured using the method described by Li, W., et al., Pharmacokinetics, Biodistribution, and Anti-Angiogenesis Efficacy of Diamino Propane Tetraiodothyroacetic Acid-conjugated Biodegradable Polymeric Nanoparticle. Sci Rep, 2019. 9(1): p. 9006. Ninety-six polystyrene microtiter plates coated with fibrinogen and incubated at 4° C. overnight. The wells were blocked with 3% BSA for 2 hours at room temperature and were washed with buffer A (50 mM Tris/HCl, 100 mM NaCl, 1 mM CaCl2), 1 mM MgCl2, 1% BSA) for three times. Integrins αvβ3 and increasing concentrations of P-bi-TET or m-P-mono-TET were added and incubated for 2 hours at room temperature, and then wells were washed three times with buffer A and incubated with a streptavidin HRP conjugate (1:1000 in buffer A) for 1 hour at room temperature. Finally, wells were washed three times with buffer A and 100 μL peroxidase substrate TMB was added, and the reaction was terminated after 30 minutes with 50 μL of 450 nm stop solution for TMB. Absorbance was determined at 450 nm with a Microplate Reader (Bio-Rad, Hercules, Calif., USA). […]

Sequence of purified αvβ3 (P06756 31-889 limits assumed): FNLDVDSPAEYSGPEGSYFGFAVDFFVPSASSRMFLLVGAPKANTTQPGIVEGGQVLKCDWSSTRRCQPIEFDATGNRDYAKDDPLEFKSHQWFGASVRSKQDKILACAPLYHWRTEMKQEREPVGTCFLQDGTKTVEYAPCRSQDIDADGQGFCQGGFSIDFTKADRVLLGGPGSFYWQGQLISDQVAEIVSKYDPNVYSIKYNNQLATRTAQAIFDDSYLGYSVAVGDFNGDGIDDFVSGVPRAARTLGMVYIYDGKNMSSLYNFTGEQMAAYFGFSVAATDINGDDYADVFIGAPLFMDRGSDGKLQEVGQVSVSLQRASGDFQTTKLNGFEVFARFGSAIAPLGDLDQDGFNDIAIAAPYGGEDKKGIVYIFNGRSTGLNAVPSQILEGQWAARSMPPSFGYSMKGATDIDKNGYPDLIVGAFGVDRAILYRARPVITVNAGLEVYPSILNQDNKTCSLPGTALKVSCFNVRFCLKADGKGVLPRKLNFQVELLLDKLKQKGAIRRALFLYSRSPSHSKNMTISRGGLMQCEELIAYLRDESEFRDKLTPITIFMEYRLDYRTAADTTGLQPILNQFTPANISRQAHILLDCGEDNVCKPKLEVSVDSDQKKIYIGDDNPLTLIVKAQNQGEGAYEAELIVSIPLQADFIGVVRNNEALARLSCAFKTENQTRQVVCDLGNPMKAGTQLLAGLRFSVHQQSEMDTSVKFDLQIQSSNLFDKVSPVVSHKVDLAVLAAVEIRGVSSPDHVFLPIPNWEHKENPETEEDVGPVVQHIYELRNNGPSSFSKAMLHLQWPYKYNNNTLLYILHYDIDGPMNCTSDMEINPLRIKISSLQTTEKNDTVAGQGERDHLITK
Sequence of purified αvβ3 (P06756 891-1048 limits assumed): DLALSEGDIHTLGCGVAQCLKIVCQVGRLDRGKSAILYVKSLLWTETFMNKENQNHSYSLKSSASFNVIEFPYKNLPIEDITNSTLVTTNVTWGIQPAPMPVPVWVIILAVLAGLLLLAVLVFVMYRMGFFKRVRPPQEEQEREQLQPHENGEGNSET
Sequence of purified αvβ3 (P05106 27-788): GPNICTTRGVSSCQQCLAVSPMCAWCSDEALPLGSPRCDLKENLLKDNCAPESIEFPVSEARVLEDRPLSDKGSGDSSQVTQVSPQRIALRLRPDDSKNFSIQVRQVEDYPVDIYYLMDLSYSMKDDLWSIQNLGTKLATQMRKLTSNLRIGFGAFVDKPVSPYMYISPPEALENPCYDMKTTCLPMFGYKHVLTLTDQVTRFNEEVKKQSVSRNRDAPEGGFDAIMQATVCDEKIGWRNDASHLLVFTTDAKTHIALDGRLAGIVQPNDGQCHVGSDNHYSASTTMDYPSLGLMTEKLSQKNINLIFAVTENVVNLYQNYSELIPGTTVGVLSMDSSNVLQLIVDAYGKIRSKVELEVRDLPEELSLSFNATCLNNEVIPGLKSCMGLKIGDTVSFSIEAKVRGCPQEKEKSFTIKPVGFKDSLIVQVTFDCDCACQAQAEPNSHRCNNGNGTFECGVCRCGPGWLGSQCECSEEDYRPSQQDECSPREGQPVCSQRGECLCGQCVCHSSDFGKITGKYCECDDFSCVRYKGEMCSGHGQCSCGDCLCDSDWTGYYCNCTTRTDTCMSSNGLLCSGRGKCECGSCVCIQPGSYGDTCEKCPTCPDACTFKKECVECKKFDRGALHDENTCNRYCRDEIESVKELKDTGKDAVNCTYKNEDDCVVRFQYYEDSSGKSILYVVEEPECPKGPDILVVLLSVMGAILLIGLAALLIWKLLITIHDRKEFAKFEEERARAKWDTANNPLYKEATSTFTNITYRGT

For `O=C(O)Cc1cc(I)c(Oc2cc(I)c(O)c(I)c2)c(I)c1` [Tetrac, tetraiodothyroacetic acid], the IC50 was 105.4 ± 0.86 nM.
